From patent publication US8999937B2, “Glucocorticoid induced leucine zipper mimetics as therapeutic agents in multiple sclerosis” (Indiana University Research and Technology Corporation, priority 2011, dated 2015)
Entries after “also recorded” stand apart in the source; their conditions may differ.

Experiments:
[1] = target: T1, recombinant human p65 protein (r-p65) (Homo sapiens, UniProt Q04206); assay: GILZ:p65 direct binding and kinetics by modified ELISA
T1 construct: control-P at varying concentrations was probed with full-length r-p65-DDK; purchased OriGene Technologies Inc., Rockville, Md
Description: To detect direct interaction, ELISA plates were coated with increasing concentrations of the GILZ protein and probed with increasing concentrations of the p65 protein followed by detection with anti-human GILZ mAb. To detect binding of cellular GILZ and p65, ELISA plates were coated with the p65 protein (20 ng), and probed with the cytoplasmic fraction from T cells. Binding of the plate bound p65 with the cytoplasmic GILZ protein was detected with anti-human GILZ mAb. Alternatively, wells coated with the GILZ-GST protein (20 ng) were probed with the nuclear fractions from T cells and the GILZ:nuclear p65 binding was detected with anti-human p65 mAb. The bound complex was detected with TNB at absorbance of 450 nm.
(§2) Binding of the plate-bound r-p65 with cytoplasmic GILZ and the plate-bound GILZ with nuclear p65 was detected with anti-GILZ mAb or anti-p65 mAb, respectively, followed by trinitrobenzene substrate. […] Absorbance at 650 nm was measured between 0 and 300 s with a mixing time of 0.30 s and a 5-s interval between readings.

[2] = Circular dichroism; assay type: physicochemical
Description: CD measurements can be recorded on a JASCO model, J-710 spectropolarimeter, (Jasco Inc, Easton, Md.) as described previously. The samples can be prepared by dissolving lyophilized GILZ peptide or control peptides at 100 μM concentration in citrate buffer (1 mM sodium citrate, 1 mM sodium borate, 1 mM sodium phosphate, 15 mM NaCl) with pH adjusted at 7.0. CD spectra can be collected using a 1 cm path-length quartz cuvette at 50° C. or 90° C. in the 190- to 270-nm wavelength range with a 0.5 nm resolution and a scan rate of 200 nm/min. Reported spectra can represent the unsmoothed averages of 30 scans. Each spectrum can be measured three times with individually prepared solutions. Raw CD signals (in millidegrees) can be converted to mean residue molar ellipticity (θ) in deg cm^2/dmol using the formula [θ] MRW 5 [θ]obs/101cn, where θ obs is the observed ellipticity, 1 is the pathlength in centimeters, c is the molar concentration of peptide, and n is the number of residues in the peptide. To determine 0% PPII helical content CD spectra can be recorded with GILZ-peptide dissolved in 5M CaCl2.

[3] = test system: T-bet, GATA-3, IL-10 and FoxP3 mRNA; assay: Quantitative RT-PCR in CD4+ LNC from treated R-EAE mice; assay type: in vivo, mouse; conditions: for GATA-3 mRNA / T-bet mRNA: mice treated on day 0, re-stimulation with PLP139-151; for FoxP3 mRNA / IL-10 mRNA: mice treated on day 0, vs vehicle/control-P
Description: 50 ng of cDNA from CD4+LNC were used for quantitative measurement of message for (A) T-bet, (B) GATA-3, (C) IL-10, and (D) FoxP3 by quantitative RT-PCR. (E), gel electrophoresis of representative products. * and # represent p<0.05 by analysis of variance as compared with vehicle or control peptide-treated group, respectively.

[4] = test system: CD4+ LNC from PLP primed SJL/J mice; assay: In vitro cytokine secretion (ELISA) by PLP139-151 restimulated CD4+ cells from primed SJL/J mice; assay type: cell-based, mouse; conditions: for IFN-γ secretion / IL-10 secretion / IL-12 secretion / IL-17 secretion: CD4+ LNC, PLP restimulated, 48 h; for IFN-γ secretion / IL-10 secretion / IL-12 secretion: vs untreated/control peptide; for IL-17 secretion: vs untreated/control-P; for cytokine secretion (INF-γ and IL-12p40) by in-vivo primed T cells: CD4+ splenocytes, PLP 40 μg/ml, 24 hrs, FIG. 5
Description: CD4+ splenocytes isolated 10 days post-immunization from SJL mice induced EAE were co-cultured with irradiated syngenic APC and restimulated with PLP (40 μg/ml) in the presence of complex of chariot peptide with rGILZ protein/dexamethasone/GILZ-P at indicated concentrations. Supernatants collected after 24 hrs were assessed for INF-γ and IL-12p40 by ELISA. *=p<0.05 when compared to cells +PLP.
Supernatants from separate CD4+LNC cultured similarly collected at 24 hrs and 48 hrs were stored at −20° C. The levels of cytokines, IL-10, IL-12, and interferon gamma (IFN-γ) were determined by ELISA, using OptEIA kits, according to the manufacturer's recommendations (BD PharMingen). Group comparisons were made by one way analysis of variance (ANOVA) followed by Tukey's post-hoc.
(§1) Supernatants collected at 24 and 48 h were assessed for specific cytokines using the OptEIA kits (BD Biosciences). Proliferation assays included parallel cultures for 72 h with a final 18-h pulse with [^3H]thymidine measured by liquid scintillation counting (Microbeta, Turku, Finland).

[5] = test system: CD4+ splenocytes from R-EAE mice; assay: Ex vivo proliferation of CD4+ splenocytes from treated R-EAE mice; assay type: in vivo, mouse; conditions: for proliferative responses (mean Δcpm) to PLP139-151: mice treated on day 0, cells 45 days post-immunization; for average proliferative response of unstimulated CD4+ splenocytes: in cpm
Description: Data represent average±S.D. from two experiments (n=9/group). (C)-(H) show GILZ-peptide treatment suppresses Th1 cytokines in R-EAE. […] C, proliferative responses of CD4+ splenocytes are plotted as Δcpm±S.E. #, p<0.05 as compared with the responses of cells from vehicle-treated mice. Supernatant collected at 48 h from separate CD4+ splenocyte cultures were assessed for (D) IL-12, (E) IFN-γ, (F) IL-17, (G) IL-10, and (H) TGF-β by ELISA. * and # represent p<0.05 as compared with vehicle or control peptide-treated groups, respectively.
as §1

[6] = target: T2, p65ΔC14 (Homo sapiens, UniProt Q04206); assay: GILZ binding ELISA with partial length p65; conditions: detected with anti-p65 mAb
T2 construct: purchased Active Motif, Carlsbad, Calif
Description: as §2

[7] = test system: activated p65 NF-κB subunit; assay: NF-κB assay (TransAM): p65 DNA binding in nuclear extracts; assay type: cell-based, mouse; conditions: CD4+ LNC restimulated with PLP139-151, 24 h
Description: Nuclear and cytoplasmic protein fractions of CD4+ T cells obtained using a nuclear extraction kit are assessed for NF-κB activation and p65 nuclear translocation using Trans^AM NF-κB kits (Active Motif, Carlsbad, Calif.). The effect of exogenous GILZ and GILZ mimetics on phosphorylation and proteolytic degradation of IκB proteins is determined by Western blot analysis of nuclear and cytoplasmic protein fractions from CD4+ T cells pretreated with GILZ/chariot peptide complex prior to stimulation.
5 μg of nuclear extracts isolated from PLP139-151 restimulated CD4+ cells from R-EAE mice were incubated in a 96-well plate coated with oligonucleotides containing the NF-κB consensus binding site. The activated NF-κB bound to DNA was detected by anti-p65 antibody followed by a peroxidase-coupled secondary antibody and substrate using the TransAM kit protocol (Active Motif).

[8] = test system: PPD stimulated human CD4+ T cells; assay: Cytokine secretion by PPD-stimulated human CD4+ T cells (ELISA); assay type: cell-based; conditions: 24 h, complex with chariot peptide
Description: Purified CD4+ T cells isolated from PBMC by magnetic cell separation (Miltenyi Biotech, Germany), were seeded with irradiated autologous PBMC (T cells depleted) as APC at 1:1.5 ratio in serum-free RPMI (with 5% penicillin/streptomycin), and stimulated with PPD (20 μm/ml) alone or in the presence of dexamethasone (100 μm/ml) or 20:1 M complex of chariot peptide with GILZ protein (0.7 μm/ml)/anti-human GILZ mAb (1 μm/ml)/anti-human p65 mAb (1 μm/ml)/control antibody (1 μm/ml). Supernatants collected at 24 hrs were assessed for cytokines including human IFN-γ, TNF-α, IL-12 p40 and IL-10 using BD OptEIA™ kits. Differences in the secretion of cytokines between the groups were determined by one way ANOVA followed by Tukey's post-hoc analysis (see FIG. 4).

T1 sequence (Q04206 whole entry): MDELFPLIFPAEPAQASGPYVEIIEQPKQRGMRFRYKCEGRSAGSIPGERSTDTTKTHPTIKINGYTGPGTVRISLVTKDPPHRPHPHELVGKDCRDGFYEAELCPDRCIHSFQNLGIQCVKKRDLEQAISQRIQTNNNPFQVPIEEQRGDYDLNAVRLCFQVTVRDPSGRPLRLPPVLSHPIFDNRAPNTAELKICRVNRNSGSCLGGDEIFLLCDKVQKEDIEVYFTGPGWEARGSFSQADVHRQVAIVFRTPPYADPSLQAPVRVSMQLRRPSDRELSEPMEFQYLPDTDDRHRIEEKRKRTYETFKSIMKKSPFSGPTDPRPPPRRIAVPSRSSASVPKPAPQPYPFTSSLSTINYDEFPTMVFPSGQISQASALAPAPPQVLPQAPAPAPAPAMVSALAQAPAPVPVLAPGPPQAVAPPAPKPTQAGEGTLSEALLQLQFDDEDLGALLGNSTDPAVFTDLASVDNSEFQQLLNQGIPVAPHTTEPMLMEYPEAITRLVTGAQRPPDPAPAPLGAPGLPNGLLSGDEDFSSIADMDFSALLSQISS
T2 sequence (Q04206 1-537 limits assumed, stated change not applied): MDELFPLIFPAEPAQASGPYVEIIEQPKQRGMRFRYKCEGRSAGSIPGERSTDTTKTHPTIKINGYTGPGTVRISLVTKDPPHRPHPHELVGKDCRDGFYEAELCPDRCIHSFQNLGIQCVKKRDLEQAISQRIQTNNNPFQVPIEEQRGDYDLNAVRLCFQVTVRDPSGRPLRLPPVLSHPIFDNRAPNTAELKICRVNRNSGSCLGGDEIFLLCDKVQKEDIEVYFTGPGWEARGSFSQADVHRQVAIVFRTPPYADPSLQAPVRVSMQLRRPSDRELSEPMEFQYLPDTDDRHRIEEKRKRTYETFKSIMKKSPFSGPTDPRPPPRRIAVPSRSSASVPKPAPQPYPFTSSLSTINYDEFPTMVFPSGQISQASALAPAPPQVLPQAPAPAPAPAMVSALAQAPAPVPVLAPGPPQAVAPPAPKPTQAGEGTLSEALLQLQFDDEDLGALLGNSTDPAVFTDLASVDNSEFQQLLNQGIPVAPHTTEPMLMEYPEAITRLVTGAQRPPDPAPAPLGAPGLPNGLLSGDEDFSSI

| Substance | GATA-3 mRNA [3] | T-bet mRNA [3] | FoxP3 mRNA [3] | IL-10 mRNA [3] | IFN-γ secretion [4] | IL-10 secretion [4] | IL-12 secretion [4] | IL-17 secretion [4] | cytokine secretion (INF-γ and IL-12p40) by in-vivo primed T cells [4] | proliferative responses (mean Δcpm) to PLP139-151 [5] | average proliferative response of unstimulated CD4+ splenocytes ([5]; mice treated on day 0) | p65-specific DNA binding activity in nuclear extracts [7] | also measured |
| --- | --- | --- | --- | --- | --- | --- | --- | --- | --- | --- | --- | --- | --- |
| Ac-CLSPEEPAPESPQVPEAPGGSAV-NH2 [GILZ-P] | elevated | significantly lower | significantly higher | significantly higher | significantly lower | elevated | significantly lower | significantly lower | suppresses | 5,733±208 cpm | 2,376±602 | significantly decreased | time at which maximum absorbance was reached in binding with r-p65 [1]: 38 s; adjusted velocity of the interaction with r-p65 ([1]; at 1:4 molar concentrations): 25 s⁻¹; p65 binding (absorbance) of plate-bound agent probed with full-length r-p65 ([1]; varying coating concentrations, 40 μM r-p65): decreased with decreasing concentrations; mean residue molar ellipticity θ, maximum at 238 nm ([2]; 50° C.): 1.12×10^3 deg cm^2 dmol^−1; mean residue molar ellipticity θ, minimum at 200 nm ([2]; 50° C.): −20.03×10^3 deg·cm^2/dmol; mean residue molar ellipticity θ @ 204 nM ([2]; 90° C.): −11.37×10^3 deg cm^2/dmol; mean residue ellipticity minimum at 205 nM ([2]; in 5M CaCl2): −8.84×10^3 deg cm^2/dmol; IFN-γ secretion ([4]; listed as GILZ-peptide): significantly decreased; IL-12 secretion ([4]; listed as GILZ-peptide): significantly decreased; average proliferative response of unstimulated CD4+ splenocytes ([5]; mice treated on day 12): 1,823±532; absorbance of plate-bound agent probed with p65ΔC14 [6]: Absorbance over background was not observed |
| r-GILZ: recombinant glucocorticoid induced leucine zipper protein (Abnova; OriGene with C-terminal DDK) | elevated | significantly lower | significantly higher | significantly higher | significantly decreased; also recorded: significantly lower | elevated | significantly decreased; also recorded: significantly lower | significantly lower | suppresses | 16,880±264 cpm | 2,037±603 | significantly decreased | IL-10 secretion [8]: significantly elevated; secretion of IFN-γ [8]: significantly reduced; secretion of IL-12 [8]: significantly reduced |
